The values below are quoted from earlier work in article PMC3259182 (European Journal of Medicinal Chemistry, 2011).

SMILES strings stand for the structures.

The subject of data set [1] is NV replicon-harboring cells (HG23 cells). As to conditions: NV genome levels, 24 hr post-treatment, ref [4].
For a further data set, the system named is HG23 cells. Particulars: median toxic dose at 48 hr of treatment, ref [4].

For `Cl.O=S1(=O)N(CCN2CCOCC2)CCN1Cc1cccc(Oc2ccccc2)c1` [Compound 7c, 2-(2-Morpholinoethyl)-5-(3-phenoxybenzyl)-1,2,5-thiadiazolidine 1,1-dioxide], in data set [1], the ED50 is 5.2 µM. Moreover, the TD50 with HG23 cells was 95.4 µM.

As for `O=S1(=O)N(CCN2CCCCC2)CCN1Cc1cccc(Oc2ccccc2)c1` [Compound 7d, 2-(3-Phenoxybenzyl)-5-(2-(piperidin-1-yl)ethyl)-1,2,5-thiadiazolidine1,1-dioxide], in data set [1], the ED50 was 4.7 µM. In the data set on HG23 cells, the TD50 is 12.3 µM.
